Experimental data reported in ChEMBL document CHEMBL4387728, “Synthetic glycopeptides reveal specific binding pattern and conformational change at O-mannosylated position of α-dystroglycan by POMGnT1 catalyzed GlcNAc modification” (Bioorg Med Chem, 2019).
Active and inactive are the calls of the source. The calls are words filed in the database; no cut-off is given here. Peptide text beside a SMILES is read from it. * marks the point of attachment. X1 = CC(=O)N[C@H]1[C@H](O[C@H]2[C@@H](O)[C@H](O)[C@@H](CO)O[C@@H]2*)O[C@H](CO)[C@@H](O[C@@H]2O[C@H](CO)[C@H](O)[C@H](O[C@]3(C(=O)O)C[C@H](O)[C@@H](NC(C)=O)[C@H]([C@H](O)[C@H](O)CO)O3)[C@H]2O)[C@@H]1O; X2 = CC(=O)N[C@H]1[C@H](O[C@H]2[C@@H](O)[C@H](O)[C@@H](CO)O[C@@H]2*)O[C@H](CO)[C@@H](O[C@@H]2O[C@H](CO)[C@H](O)[C@H](O)[C@H]2O)[C@@H]1O; GlcNAc(β1-2)αMan = CC(=O)N[C@H]1[C@H](O[C@H]2[C@@H](O)[C@H](O)[C@@H](CO)O[C@@H]2*)O[C@H](CO)[C@@H](O)[C@@H]1O; Hexanoyl(5-oxo) = CC(=O)CCCC(=O)*

What was measured:
[1] = tested on: Maackia amurensis; experiment: Binding affinity to biotin-labeled Maackia amurensis agglutinin in pH 7.4 Tris buffer by fluorescence microarray method
[2] = tested on: Triticum aestivum; experiment: Binding affinity to biotin-labeled Wheat germ agglutinin in pH 7.4 Tris buffer by fluorescence microarray method
[3] = target: Lactotransferrin (Homo sapiens) (UniProt P02788); experiment: Binding affinity to biotin-labeled lactoferrin (unknown origin) at 10 ug/ml in pH 7.4 Tris buffer by fluorescence microarray method
Lactotransferrin (Homo sapiens), sequence (P02788 whole entry): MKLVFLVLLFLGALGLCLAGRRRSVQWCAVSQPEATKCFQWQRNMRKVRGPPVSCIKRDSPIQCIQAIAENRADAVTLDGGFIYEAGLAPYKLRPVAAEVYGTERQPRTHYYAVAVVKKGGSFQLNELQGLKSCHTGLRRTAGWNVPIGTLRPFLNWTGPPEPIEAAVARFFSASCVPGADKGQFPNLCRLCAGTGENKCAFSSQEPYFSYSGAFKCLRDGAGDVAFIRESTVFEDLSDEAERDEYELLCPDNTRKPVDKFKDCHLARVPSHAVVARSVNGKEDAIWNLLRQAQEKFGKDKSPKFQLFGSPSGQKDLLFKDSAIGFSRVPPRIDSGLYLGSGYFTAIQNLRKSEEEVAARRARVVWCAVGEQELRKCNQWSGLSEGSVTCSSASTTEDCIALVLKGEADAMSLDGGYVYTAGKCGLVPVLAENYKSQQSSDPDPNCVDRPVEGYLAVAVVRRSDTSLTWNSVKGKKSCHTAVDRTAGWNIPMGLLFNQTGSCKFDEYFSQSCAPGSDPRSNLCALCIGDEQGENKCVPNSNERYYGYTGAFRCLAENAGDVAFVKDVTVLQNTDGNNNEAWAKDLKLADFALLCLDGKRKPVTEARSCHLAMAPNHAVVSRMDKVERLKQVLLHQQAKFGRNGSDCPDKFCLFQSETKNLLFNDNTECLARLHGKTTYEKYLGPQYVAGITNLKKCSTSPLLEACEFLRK

[4] = tested on: Datura stramonium; experiment: Binding affinity to biotin-labeled Datura stramonium agglutinin in pH 7.4 Tris buffer by fluorescence microarray method
[5] = tested on: Sambucus racemosa subsp. sieboldiana; experiment: Binding affinity to biotin-labeled Sambucus sieboldiana agglutinin in pH 7.4 Tris buffer by fluorescence microarray method
[6] = target: Laminin subunit alpha-1 (Homo sapiens) (UniProt P25391); experiment: Binding affinity to biotin-labeled human recombinant laminin-1 at 10 ug/ml in pH 5.6 MES buffer by fluorescence microarray method
Laminin subunit alpha-1 (Homo sapiens), sequence (P25391 whole entry): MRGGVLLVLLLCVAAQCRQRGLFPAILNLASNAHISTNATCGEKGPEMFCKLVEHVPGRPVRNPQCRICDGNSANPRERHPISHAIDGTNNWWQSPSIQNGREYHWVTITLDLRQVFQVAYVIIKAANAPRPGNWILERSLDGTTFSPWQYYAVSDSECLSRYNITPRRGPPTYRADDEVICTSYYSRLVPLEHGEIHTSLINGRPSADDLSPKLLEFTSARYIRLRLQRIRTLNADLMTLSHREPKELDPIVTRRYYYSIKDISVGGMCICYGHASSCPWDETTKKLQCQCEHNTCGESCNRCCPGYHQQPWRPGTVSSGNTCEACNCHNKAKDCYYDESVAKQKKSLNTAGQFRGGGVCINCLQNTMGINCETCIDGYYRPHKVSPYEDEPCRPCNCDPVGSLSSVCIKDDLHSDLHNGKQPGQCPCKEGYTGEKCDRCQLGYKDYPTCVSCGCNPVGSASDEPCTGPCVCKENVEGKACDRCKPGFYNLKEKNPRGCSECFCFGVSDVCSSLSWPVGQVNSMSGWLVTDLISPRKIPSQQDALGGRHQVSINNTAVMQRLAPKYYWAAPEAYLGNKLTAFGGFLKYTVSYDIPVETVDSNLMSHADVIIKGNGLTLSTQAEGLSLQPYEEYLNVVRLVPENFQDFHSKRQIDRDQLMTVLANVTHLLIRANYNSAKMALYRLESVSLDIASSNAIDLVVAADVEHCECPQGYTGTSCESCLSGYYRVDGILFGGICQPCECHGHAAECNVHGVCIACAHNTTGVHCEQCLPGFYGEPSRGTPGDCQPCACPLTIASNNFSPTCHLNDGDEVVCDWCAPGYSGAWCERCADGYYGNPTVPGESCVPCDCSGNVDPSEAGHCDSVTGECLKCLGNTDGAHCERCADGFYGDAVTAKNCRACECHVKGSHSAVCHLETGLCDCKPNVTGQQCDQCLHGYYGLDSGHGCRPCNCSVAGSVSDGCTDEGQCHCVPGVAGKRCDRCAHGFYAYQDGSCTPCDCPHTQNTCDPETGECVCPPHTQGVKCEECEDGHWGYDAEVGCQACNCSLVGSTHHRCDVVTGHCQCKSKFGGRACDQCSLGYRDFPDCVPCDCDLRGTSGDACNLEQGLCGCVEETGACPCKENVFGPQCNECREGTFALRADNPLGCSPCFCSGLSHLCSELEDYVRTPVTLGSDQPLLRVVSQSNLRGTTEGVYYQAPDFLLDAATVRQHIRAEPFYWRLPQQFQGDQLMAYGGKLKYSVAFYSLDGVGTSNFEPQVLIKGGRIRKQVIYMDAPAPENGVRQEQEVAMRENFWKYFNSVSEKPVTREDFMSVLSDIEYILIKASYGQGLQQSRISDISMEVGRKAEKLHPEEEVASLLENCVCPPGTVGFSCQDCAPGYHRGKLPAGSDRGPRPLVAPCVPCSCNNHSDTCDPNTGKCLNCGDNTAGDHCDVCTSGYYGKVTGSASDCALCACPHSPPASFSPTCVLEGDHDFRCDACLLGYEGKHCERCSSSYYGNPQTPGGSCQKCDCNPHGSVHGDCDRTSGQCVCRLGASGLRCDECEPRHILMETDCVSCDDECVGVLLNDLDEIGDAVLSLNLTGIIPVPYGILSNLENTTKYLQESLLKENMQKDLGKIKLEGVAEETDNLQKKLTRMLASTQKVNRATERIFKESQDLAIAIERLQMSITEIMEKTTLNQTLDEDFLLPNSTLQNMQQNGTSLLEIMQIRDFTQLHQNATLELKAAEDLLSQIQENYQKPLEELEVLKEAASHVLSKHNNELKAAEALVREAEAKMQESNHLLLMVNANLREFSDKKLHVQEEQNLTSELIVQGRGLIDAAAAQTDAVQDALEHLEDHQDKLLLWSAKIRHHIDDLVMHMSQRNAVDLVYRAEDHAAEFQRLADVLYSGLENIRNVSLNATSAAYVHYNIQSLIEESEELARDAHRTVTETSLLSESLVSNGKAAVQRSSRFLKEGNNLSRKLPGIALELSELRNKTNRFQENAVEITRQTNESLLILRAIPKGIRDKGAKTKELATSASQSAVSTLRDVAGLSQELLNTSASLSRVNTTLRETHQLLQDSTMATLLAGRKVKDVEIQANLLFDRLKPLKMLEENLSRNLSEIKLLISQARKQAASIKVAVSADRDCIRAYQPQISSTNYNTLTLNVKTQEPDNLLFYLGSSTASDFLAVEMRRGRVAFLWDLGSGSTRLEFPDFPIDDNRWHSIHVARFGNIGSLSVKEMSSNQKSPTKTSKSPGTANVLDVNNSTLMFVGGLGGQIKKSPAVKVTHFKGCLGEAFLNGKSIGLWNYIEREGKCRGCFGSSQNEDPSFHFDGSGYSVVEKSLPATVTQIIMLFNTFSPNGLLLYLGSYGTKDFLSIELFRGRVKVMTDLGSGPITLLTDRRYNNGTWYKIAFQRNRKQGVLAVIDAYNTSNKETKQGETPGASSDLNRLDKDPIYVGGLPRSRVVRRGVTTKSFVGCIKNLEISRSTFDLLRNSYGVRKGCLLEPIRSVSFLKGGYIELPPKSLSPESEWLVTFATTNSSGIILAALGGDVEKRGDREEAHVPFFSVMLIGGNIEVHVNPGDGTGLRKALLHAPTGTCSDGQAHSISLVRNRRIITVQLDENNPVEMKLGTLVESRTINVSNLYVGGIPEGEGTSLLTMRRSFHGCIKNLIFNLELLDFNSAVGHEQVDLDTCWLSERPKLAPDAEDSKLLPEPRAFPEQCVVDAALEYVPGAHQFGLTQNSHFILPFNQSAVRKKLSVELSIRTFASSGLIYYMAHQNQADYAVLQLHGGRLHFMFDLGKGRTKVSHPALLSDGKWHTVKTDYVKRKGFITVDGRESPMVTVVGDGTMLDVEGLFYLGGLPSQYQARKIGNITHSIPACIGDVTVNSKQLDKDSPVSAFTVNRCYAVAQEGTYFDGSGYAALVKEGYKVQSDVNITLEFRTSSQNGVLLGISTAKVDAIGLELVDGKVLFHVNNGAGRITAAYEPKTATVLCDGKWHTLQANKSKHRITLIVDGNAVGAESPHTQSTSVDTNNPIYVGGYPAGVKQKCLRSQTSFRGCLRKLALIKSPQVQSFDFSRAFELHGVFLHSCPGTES

[7] = tested on: Canavalia ensiformis; experiment: Binding affinity to biotin-labeled Canavalia ensiformis agglutinin in pH 7.4 Tris buffer by fluorescence microarray method
[8] = tested on: Erythrina crista-galli; experiment: Binding affinity to biotin-labeled Erythrina crista-galli agglutinin in pH 7.4 Tris buffer by fluorescence microarray method
[9] = Binding affinity to biotin-labeled Agaricus bisporus agglutinin in pH 7.4 Tris buffer by fluorescence microarray method
[10] = species: Homo sapiens; experiment: Binding affinity to biotin-labeled human recombinant laminin-2 at 10 ug/ml in 5.6 MES buffer by fluorescence microarray method
[11] = tested on: Arachis hypogaea; experiment: Binding affinity to biotin-labeled Arachis hypogaea agglutinin in pH 7.4 Tris buffer by fluorescence microarray method
[12] = species: Homo sapiens; experiment: Binding affinity to biotin-labeled human recombinant laminin-2 at 10 ug/ml in pH 7.4 Tris buffer by fluorescence microarray method
[13] = target: Lactotransferrin (Homo sapiens) (UniProt P02788); experiment: Binding affinity to biotin-labeled lactoferrin (unknown origin) at 10 ug/ml in pH 5.6 MES buffer by fluorescence microarray method
[14] = target: Laminin subunit alpha-1 (Homo sapiens) (UniProt P25391); experiment: Binding affinity to biotin-labeled human recombinant laminin-1 at 10 ug/ml in pH 7.4 Tris buffer by fluorescence microarray method

| SMILES | Activity [1] | Activity [2] | Activity [3] | Activity [4] | Activity [5] | Activity [6] | Activity [7] | Activity [8] | Activity [9] | Activity [10] | Activity [11] | Activity [12] | Activity [13] | Activity [14] |
| --- | --- | --- | --- | --- | --- | --- | --- | --- | --- | --- | --- | --- | --- | --- |
| CC[C@H](C)[C@H](NC(=O)[C@H](C)NC(=O)CNC(=O)[C@H](CCCNC(=N)N)NC(=O)[C@@H](NC(=O)CCCC(C)=O)[C@@H](C)O)C(=O)N[C@H](C(=O)N[C@@H](CCC(N)=O)C(=O)N[C@H](C(=O)N1CCC[C@H]1C(=O)N[C@H](C(=O)N[C@@H](CC(C)C)C(=O)NCC(=O)N1CCC[C@H]1C(=O)N[C@H](C(=O)N[C@@H](CCC(N)=O)C(=O)N1CCC[C@H]1C(=O)N[C@H](C(=O)N[C@@H](CCCNC(=N)N)C(=O)N[C@H](C(N)=O)C(C)C)[C@@H](C)O)[C@@H](C)CC)[C@@H](C)O)[C@@H](C)O[C@H]1O[C@H](CO)[C@@H](O)[C@H](O)[C@@H]1O[C@@H]1O[C@H](CO)[C@@H](O[C@@H]2O[C@H](CO)[C@H](O)[C@H](O)[C@H]2O)[C@H](O)[C@H]1NC(C)=O)[C@@H](C)CC ({Hexanoyl(5-oxo)}-TRGAIIQT(X2)PTLGPIQPTRV-NH2) | inactive | Active | inactive | inactive | Active | Active | Active | Active | Active | Active | Active | inactive | Active | Active |
| CC[C@H](C)[C@H](NC(=O)[C@H](C)NC(=O)CNC(=O)[C@H](CCCNC(=N)N)NC(=O)[C@@H](NC(=O)CCCC(C)=O)[C@@H](C)O)C(=O)N[C@H](C(=O)N[C@@H](CCC(N)=O)C(=O)N[C@H](C(=O)N1CCC[C@H]1C(=O)N[C@H](C(=O)N[C@@H](CC(C)C)C(=O)NCC(=O)N1CCC[C@H]1C(=O)N[C@H](C(=O)N[C@@H](CCC(N)=O)C(=O)N1CCC[C@H]1C(=O)N[C@H](C(=O)N[C@@H](CCCNC(=N)N)C(=O)N[C@H](C(N)=O)C(C)C)[C@@H](C)O[C@H]1O[C@H](CO)[C@@H](O)[C@H](O)[C@@H]1O[C@@H]1O[C@H](CO)[C@@H](O[C@@H]2O[C@H](CO)[C@H](O)[C@H](O[C@]3(C(=O)O)C[C@H](O)[C@@H](NC(C)=O)[C@H]([C@H](O)[C@H](O)CO)O3)[C@H]2O)[C@H](O)[C@H]1NC(C)=O)[C@@H](C)CC)[C@@H](C)O[C@H]1O[C@H](CO)[C@@H](O)[C@H](O)[C@@H]1O[C@@H]1O[C@H](CO)[C@@H](O[C@@H]2O[C@H](CO)[C@H](O)[C@H](O[C@]3(C(=O)O)C[C@H](O)[C@@H](NC(C)=O)[C@H]([C@H](O)[C@H](O)CO)O3)[C@H]2O)[C@H](O)[C@H]1NC(C)=O)[C@@H](C)O)[C@@H](C)CC ({Hexanoyl(5-oxo)}-TRGAIIQTPT(X1)LGPIQPT(X1)RV-NH2) | inactive | Active | inactive | inactive | Active | Active | Active | Active | Active | Active | Active | inactive | Active | Active |
| CC[C@H](C)[C@H](NC(=O)[C@H](C)NC(=O)CNC(=O)[C@H](CCCNC(=N)N)NC(=O)[C@@H](NC(=O)CCCC(C)=O)[C@@H](C)O)C(=O)N[C@H](C(=O)N[C@@H](CCC(N)=O)C(=O)N[C@H](C(=O)N1CCC[C@H]1C(=O)N[C@H](C(=O)N[C@@H](CC(C)C)C(=O)NCC(=O)N1CCC[C@H]1C(=O)N[C@H](C(=O)N[C@@H](CCC(N)=O)C(=O)N1CCC[C@H]1C(=O)N[C@H](C(=O)N[C@@H](CCCNC(=N)N)C(=O)N[C@H](C(N)=O)C(C)C)[C@@H](C)O)[C@@H](C)CC)[C@@H](C)O)[C@@H](C)O[C@H]1O[C@H](CO)[C@@H](O)[C@H](O)[C@@H]1O[C@@H]1O[C@H](CO)[C@@H](O)[C@H](O)[C@H]1NC(C)=O)[C@@H](C)CC ({Hexanoyl(5-oxo)}-TRGAIIQT(GlcNAc(β1-2)αMan)PTLGPIQPTRV-NH2) | inactive | Active | inactive | inactive | Active | Active | Active | Active | Active | Active | Active | inactive | Active | Active |
| CC[C@H](C)[C@H](NC(=O)[C@H](C)NC(=O)CNC(=O)[C@H](CCCNC(=N)N)NC(=O)[C@@H](NC(=O)CCCC(C)=O)[C@@H](C)O)C(=O)N[C@H](C(=O)N[C@@H](CCC(N)=O)C(=O)N[C@H](C(=O)N1CCC[C@H]1C(=O)N[C@H](C(=O)N[C@@H](CC(C)C)C(=O)NCC(=O)N1CCC[C@H]1C(=O)N[C@H](C(=O)N[C@@H](CCC(N)=O)C(=O)N1CCC[C@H]1C(=O)N[C@H](C(=O)N[C@@H](CCCNC(=N)N)C(=O)N[C@H](C(N)=O)C(C)C)[C@@H](C)O[C@H]1O[C@H](CO)[C@@H](O)[C@H](O)[C@@H]1O[C@@H]1O[C@H](CO)[C@@H](O[C@@H]2O[C@H](CO)[C@H](O)[C@H](O[C@]3(C(=O)O)C[C@H](O)[C@@H](NC(C)=O)[C@H]([C@H](O)[C@H](O)CO)O3)[C@H]2O)[C@H](O)[C@H]1NC(C)=O)[C@@H](C)CC)[C@@H](C)O)[C@@H](C)O)[C@@H](C)CC ({Hexanoyl(5-oxo)}-TRGAIIQTPTLGPIQPT(X1)RV-NH2) | inactive | Active | inactive | inactive | Active | Active | Active | Active | Active | Active | Active | inactive | Active | Active |
| CC[C@H](C)[C@H](NC(=O)[C@H](C)NC(=O)CNC(=O)[C@H](CCCNC(=N)N)NC(=O)[C@@H](NC(=O)CCCC(C)=O)[C@@H](C)O)C(=O)N[C@H](C(=O)N[C@@H](CCC(N)=O)C(=O)N[C@H](C(=O)N1CCC[C@H]1C(=O)N[C@H](C(=O)N[C@@H](CC(C)C)C(=O)NCC(=O)N1CCC[C@H]1C(=O)N[C@H](C(=O)N[C@@H](CCC(N)=O)C(=O)N1CCC[C@H]1C(=O)N[C@H](C(=O)N[C@@H](CCCNC(=N)N)C(=O)N[C@H](C(N)=O)C(C)C)[C@@H](C)O)[C@@H](C)CC)[C@@H](C)O[C@H]1O[C@H](CO)[C@@H](O)[C@H](O)[C@@H]1O[C@@H]1O[C@H](CO)[C@@H](O[C@@H]2O[C@H](CO)[C@H](O)[C@H](O)[C@H]2O)[C@H](O)[C@H]1NC(C)=O)[C@@H](C)O)[C@@H](C)CC ({Hexanoyl(5-oxo)}-TRGAIIQTPT(X2)LGPIQPTRV-NH2) | inactive | Active | inactive | inactive | Active | Active | Active | Active | Active | Active | Active | inactive | Active | Active |
